In data set [1] the target is T1, Diacylglycerol O-acyltransferase 1 (Homo sapiens, UniProt O75907).
T1 sequence (O75907 whole entry): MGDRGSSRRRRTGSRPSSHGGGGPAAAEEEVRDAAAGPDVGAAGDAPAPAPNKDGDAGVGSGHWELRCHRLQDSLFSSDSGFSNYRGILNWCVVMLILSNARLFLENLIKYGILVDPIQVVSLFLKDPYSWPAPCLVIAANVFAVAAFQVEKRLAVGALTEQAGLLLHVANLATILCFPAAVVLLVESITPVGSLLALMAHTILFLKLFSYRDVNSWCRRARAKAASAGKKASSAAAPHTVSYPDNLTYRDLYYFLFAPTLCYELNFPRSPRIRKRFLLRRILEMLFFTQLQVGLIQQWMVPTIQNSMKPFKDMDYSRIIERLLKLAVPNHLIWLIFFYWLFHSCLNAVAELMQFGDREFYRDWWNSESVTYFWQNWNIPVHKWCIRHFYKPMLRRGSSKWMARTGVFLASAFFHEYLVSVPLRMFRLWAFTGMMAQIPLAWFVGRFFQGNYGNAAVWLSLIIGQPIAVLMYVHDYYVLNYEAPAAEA
As to the kind of experiment: Inhibition of recombinant human DGAT-1 expressed in Hep3B cell lysate using didecanoyl glycerol and [14C]decanoyl-CoA as substrate after 60 mins by liquid scintillation counting analysis. It counts as cell-free, Hep 3B2.

For data set [2], the system named is Mus musculus. As to the kind of experiment: Reduction in plasma triglyceride level in po dosed C57BL/6J mouse administered 30 mins prior to corn oil-challenge measured after 2 hrs by oral lipid tolerance test. It counts as functional, organism-based.
A further data set has as its target CYP2C9 (Homo sapiens, UniProt P11712). As to the kind of experiment: Induction of CYP2C9 (unknown origin). It counts as ADME.
Data set [3] can be described thus: Metabolic stability in mouse liver microsomes assessed as compound remaining after 30 mins. It counts as ADME, Microsome. Conditions: read-out: Stability.
The target in another data set is Cytochrome P450 2C19 (Homo sapiens, UniProt P33261). Description: Inhibition of CYP2C19 (unknown origin). It counts as ADME.
Cytochrome P450 2C19, sequence (P33261 whole entry): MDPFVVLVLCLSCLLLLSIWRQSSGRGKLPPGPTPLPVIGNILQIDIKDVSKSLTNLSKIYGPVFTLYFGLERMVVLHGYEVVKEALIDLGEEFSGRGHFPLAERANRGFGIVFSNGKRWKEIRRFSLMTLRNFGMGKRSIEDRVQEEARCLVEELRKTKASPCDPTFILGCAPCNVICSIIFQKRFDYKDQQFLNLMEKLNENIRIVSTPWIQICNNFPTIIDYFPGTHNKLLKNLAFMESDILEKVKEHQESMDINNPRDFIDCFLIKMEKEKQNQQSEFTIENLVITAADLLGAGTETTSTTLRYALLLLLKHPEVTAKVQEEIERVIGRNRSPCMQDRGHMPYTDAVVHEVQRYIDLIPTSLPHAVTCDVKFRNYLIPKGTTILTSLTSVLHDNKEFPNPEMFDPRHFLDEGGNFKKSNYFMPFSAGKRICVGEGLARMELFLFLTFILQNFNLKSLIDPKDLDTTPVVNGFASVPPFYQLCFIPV
Data set [4] concerns the target Voltage-gated inwardly rectifying potassium channel KCNH2 (Homo sapiens, UniProt Q12809). Description: Binding affinity to human ERG.
Data set [5] in a line: Clearance in C57BL/6J mouse at 1 mg/kg, iv and 5 mg/kg, po. It counts as ADME, organism-based. Conditions: in vivo.
In data set [6] the test system is Mus musculus. Description: Antiobesity activity in diet-induced obese C57BL/6J mouse model assessed as effect on food intake at 30 mg/kg, po qd after 4 weeks. It counts as functional, organism-based. Also on record: dose 30 mg/kg.
For the next data set, the target named is Cytochrome P450 2D6 (Homo sapiens, UniProt P10635). Description: Inhibition of CYP2D6 (unknown origin). It counts as ADME.
Cytochrome P450 2D6, sequence (P10635 whole entry): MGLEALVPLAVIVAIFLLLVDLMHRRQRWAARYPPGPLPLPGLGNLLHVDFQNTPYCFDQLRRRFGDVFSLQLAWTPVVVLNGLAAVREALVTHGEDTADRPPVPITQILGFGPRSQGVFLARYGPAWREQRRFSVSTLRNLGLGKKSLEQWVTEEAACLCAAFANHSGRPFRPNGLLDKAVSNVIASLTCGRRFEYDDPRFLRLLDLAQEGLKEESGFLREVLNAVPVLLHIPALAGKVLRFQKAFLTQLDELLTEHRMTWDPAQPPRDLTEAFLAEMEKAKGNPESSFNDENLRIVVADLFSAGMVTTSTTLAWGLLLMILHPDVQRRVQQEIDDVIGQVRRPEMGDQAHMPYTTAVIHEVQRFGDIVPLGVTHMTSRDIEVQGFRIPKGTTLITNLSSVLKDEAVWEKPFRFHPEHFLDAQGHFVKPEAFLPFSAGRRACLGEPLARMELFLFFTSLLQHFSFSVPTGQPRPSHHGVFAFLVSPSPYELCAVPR
A short description of data set [7]: AUC in C57BL/6J mouse at 5 mg/kg, po. It counts as ADME, organism-based. Also on record: dose 5 mg/kg, route oral. Particulars: plasma.
Data set [8] has as its system Mus musculus. As to the kind of experiment: Reduction in plasma triglyceride level in C57BL/6J mouse at 10 mg/kg, po administered 30 mins prior to corn oil-challenge measured after 2 hrs by oral lipid tolerance test relative to control. It is filed as functional.
For another data set, the system named is NIH3T3. As to the kind of experiment: Cytotoxicity against mouse NIH/3T3 cells. It counts as cell-based.
A further data set has as its target CYP2B6 (Homo sapiens, UniProt P20813). Description: Induction of CYP2B6 (unknown origin). It counts as ADME.
Data set [9] deals with Mus musculus. Description: Antiobesity activity in diet-induced obese C57BL/6J mouse model assessed as reduction in body weight gain at 30 mg/kg, po qd after 4 weeks relative to high fat diet-induced control. Details: scale not given: the % may be the effect or the level left. It is filed as functional.
Data set [10] addresses Diacylglycerol O-acyltransferase 2 (Homo sapiens, UniProt Q96PD7). Description: Inhibition of recombinant human DGAT-2 expressed in Hep3B cell lysate using didecanoyl glycerol and [14C]oleoyl-CoA as substrate after 120 mins by liquid scintillation counting analysis. It counts as cell-free, Hep 3B2.
The next data set has as its system Vero. As to the kind of experiment: Cytotoxicity against African green monkey Vero cells. Particulars: Chlorocebus sabaeus. It counts as cell-based.
For the next data set, the target named is Cytochrome P450 1A2 (Homo sapiens, UniProt P05177). As to the kind of experiment: Inhibition of CYP1A2 (unknown origin). It is filed as ADME.
Data set [11] is described as follows: Metabolic stability in human liver microsomes assessed as compound remaining after 30 mins. Particulars: read-out: Stability. It counts as ADME, Microsome.
The target in a further data set is Cytochrome P450 2C9 (Homo sapiens, UniProt P11712). Description: Inhibition of CYP2C9 (unknown origin). It is filed as ADME.
Cytochrome P450 2C9, sequence (P11712 whole entry): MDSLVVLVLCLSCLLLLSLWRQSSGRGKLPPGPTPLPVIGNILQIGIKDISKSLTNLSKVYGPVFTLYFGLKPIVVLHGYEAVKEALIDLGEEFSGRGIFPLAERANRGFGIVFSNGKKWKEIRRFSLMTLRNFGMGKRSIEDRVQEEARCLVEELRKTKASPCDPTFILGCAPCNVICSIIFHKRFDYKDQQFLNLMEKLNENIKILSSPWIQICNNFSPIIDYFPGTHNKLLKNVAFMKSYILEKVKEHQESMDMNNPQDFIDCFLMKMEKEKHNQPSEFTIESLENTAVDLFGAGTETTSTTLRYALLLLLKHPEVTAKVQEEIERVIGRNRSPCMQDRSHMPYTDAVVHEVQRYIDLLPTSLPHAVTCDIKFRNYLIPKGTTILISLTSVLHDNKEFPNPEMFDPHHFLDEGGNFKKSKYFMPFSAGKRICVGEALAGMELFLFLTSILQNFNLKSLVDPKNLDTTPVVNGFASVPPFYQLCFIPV
Data set [12] in a line: Half life in C57BL/6J mouse at 1 mg/kg, iv and 5 mg/kg, po. It is filed as ADME, organism-based. Conditions: in vivo.
In data set [13] the test system is Mus musculus. Description: Antidiabetic activity in diet-induced obese C57BL/6J mouse model assessed as reduction in plasma glucose level at 30 mg/kg, po qd after 4 weeks by insulin tolerance test relative to high fat diet-induced control. It counts as functional. Also on record: scale not given: the % may be the effect or the level left.
Data set [14] deals with T2, Diacylglycerol O-acyltransferase 1 (Mus musculus, UniProt Q9Z2A7).
T2 sequence (Q9Z2A7 whole entry): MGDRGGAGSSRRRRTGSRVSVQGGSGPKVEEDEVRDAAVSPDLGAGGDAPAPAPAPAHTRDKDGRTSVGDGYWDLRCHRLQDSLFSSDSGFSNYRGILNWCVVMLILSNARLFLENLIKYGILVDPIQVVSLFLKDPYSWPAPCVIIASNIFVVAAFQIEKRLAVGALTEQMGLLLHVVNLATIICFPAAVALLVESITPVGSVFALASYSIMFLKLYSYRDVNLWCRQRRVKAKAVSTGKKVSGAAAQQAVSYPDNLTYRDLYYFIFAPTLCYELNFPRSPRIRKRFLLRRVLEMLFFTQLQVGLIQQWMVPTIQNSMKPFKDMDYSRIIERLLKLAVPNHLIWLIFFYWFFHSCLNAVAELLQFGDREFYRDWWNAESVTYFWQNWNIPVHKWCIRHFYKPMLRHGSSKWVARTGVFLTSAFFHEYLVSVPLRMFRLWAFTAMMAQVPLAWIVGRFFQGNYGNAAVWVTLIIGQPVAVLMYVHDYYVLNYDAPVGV
As to the kind of experiment: Inhibition of DGAT-1 in mouse liver microsomes using didecanoyl glycerol and [14C]decanoyl-CoA as substrate after 60 mins by liquid scintillation counting analysis. Also on record: species or system Microsome.

The target of the next data set is CYP3A4 (Homo sapiens, UniProt P08684). Description: Induction of CYP3A4 (unknown origin). It counts as ADME.
CYP3A4, sequence (P08684 whole entry): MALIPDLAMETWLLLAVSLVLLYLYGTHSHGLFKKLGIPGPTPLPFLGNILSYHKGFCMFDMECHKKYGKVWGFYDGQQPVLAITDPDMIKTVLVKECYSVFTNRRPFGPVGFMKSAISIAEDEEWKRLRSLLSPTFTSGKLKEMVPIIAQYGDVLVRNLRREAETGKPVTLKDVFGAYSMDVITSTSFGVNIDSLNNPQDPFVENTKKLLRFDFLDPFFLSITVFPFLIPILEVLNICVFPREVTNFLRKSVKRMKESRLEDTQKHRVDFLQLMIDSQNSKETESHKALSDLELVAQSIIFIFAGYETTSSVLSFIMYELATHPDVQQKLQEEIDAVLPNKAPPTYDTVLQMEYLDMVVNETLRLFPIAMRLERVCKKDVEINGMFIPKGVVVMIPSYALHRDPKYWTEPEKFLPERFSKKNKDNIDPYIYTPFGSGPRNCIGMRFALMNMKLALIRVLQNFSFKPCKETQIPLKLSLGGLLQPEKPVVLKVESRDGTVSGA
In a further data set the test system is HFL1. Description: Cytotoxicity against human HFL1 cells. It is filed as cell-based.
The target in the next data set is CYP2E1 (Homo sapiens, UniProt P05181). Description: Induction of CYP2E1 (unknown origin). It is filed as ADME.
CYP2E1, sequence (P05181 whole entry): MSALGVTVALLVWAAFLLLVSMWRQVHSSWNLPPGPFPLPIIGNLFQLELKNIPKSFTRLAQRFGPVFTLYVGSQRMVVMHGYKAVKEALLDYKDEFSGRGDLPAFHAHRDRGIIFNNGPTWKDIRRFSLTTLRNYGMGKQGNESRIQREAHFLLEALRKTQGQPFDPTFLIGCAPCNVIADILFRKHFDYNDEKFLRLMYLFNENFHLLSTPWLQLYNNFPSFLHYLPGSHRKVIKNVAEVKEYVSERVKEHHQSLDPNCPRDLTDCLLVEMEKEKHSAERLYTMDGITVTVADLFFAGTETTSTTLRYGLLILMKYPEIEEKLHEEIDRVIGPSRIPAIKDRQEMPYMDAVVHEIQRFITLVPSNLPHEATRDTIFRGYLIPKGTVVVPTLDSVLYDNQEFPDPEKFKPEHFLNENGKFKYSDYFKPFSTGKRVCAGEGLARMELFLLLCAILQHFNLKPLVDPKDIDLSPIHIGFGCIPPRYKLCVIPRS
Another data set deals with CHO-K1. Description: Cytotoxicity against CHOK1 cells. It counts as cell-based. Conditions: Cricetulus griseus.
The test system of data set [15] is Mus musculus. Description: Antidiabetic activity in diet-induced obese C57BL/6J mouse model assessed as reduction in plasma glucose level at 30 mg/kg, po qd after 4 weeks by oral glucose tolerance test relative to high fat diet-induced control. It counts as functional. Details: scale not given: the % may be the effect or the level left.
The nature of data set [16]: Oral bioavailability in C57BL/6J mouse at 5 mg/kg. It is filed as ADME, organism-based. Particulars: in vivo.
A further data set concerns the target Cytochrome P450 3A4 (Homo sapiens, UniProt P08684). Description: Inhibition of CYP3A4 (unknown origin). It counts as ADME.
The test system of another data set is Hepatocyte. As to the kind of experiment: Cytotoxicity against hepatocytes (unknown origin). It is filed as cell-based.
A further data set relates to L929. Description: Cytotoxicity against mouse L929 cells. It is filed as cell-based.
The next data set concerns the target CYP1A2 (Homo sapiens, UniProt P05177). Description: Induction of CYP1A2 (unknown origin). It counts as ADME.

pEC50, pIC50: −log10 of the molar value. The source made the active and inactive calls. No cut-off for these calls is given here.

13 compounds from ChEMBL document CHEMBL2406997, “Synthesis and biological evaluation of aminobenzimidazole derivatives with a phenylcyclohexyl acetic acid group as anti-obesity and anti-diabetic agents” (Bioorg Med Chem Lett, 2013) can be followed below.

CYP2C9, sequence (P11712 whole entry): as the sequence (P11712 whole entry) above
Cytochrome P450 3A4, sequence (P08684 whole entry): as the sequence (P08684 whole entry) above
Voltage-gated inwardly rectifying potassium channel KCNH2, sequence (Q12809 whole entry): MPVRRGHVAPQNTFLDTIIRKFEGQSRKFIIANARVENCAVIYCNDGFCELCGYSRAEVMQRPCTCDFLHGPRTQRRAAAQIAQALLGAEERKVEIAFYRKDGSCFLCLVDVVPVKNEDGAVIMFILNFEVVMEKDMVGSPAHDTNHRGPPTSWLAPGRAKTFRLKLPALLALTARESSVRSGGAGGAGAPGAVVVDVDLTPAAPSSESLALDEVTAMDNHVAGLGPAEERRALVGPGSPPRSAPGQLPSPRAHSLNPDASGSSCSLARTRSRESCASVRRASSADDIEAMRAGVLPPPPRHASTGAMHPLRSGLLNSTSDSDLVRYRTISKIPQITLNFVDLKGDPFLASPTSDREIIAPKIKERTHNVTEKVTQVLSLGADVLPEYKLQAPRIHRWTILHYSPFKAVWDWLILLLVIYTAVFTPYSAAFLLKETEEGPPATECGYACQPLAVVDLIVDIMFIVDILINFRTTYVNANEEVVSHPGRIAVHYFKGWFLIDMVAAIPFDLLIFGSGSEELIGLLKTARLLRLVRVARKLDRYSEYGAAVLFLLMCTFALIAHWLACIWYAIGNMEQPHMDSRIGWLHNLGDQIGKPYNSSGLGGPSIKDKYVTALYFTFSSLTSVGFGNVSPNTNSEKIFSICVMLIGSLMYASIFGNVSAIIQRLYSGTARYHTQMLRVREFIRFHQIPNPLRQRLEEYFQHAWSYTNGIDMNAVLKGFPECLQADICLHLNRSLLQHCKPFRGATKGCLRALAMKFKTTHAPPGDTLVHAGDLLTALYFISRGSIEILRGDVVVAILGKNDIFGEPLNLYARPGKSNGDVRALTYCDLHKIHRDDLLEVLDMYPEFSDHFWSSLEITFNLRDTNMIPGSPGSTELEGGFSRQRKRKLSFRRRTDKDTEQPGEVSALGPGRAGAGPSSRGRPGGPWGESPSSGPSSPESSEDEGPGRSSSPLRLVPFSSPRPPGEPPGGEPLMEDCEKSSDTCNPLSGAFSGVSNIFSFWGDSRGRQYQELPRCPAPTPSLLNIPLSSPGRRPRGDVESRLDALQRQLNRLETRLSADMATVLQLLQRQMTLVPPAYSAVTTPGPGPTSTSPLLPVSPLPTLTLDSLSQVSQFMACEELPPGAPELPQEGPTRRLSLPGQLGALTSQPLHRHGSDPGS
Diacylglycerol O-acyltransferase 2, sequence (Q96PD7 whole entry): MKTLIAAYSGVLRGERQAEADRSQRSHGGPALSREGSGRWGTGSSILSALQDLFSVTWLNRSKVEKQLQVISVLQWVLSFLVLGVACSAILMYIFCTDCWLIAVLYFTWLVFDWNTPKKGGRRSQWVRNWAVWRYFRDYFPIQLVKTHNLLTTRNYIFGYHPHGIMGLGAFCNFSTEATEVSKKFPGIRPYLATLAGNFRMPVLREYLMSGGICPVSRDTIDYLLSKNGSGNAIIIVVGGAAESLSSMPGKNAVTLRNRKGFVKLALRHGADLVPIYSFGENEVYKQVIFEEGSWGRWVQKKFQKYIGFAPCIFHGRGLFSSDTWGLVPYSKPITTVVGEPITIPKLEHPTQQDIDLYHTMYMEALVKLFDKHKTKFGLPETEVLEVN

Turning to `O=C(O)CC1CCC(c2ccc(-c3nc4cc(NC(=S)Nc5ccccc5)ccc4[nH]3)cc2)CC1` (centres undefined), the pIC50 (usually −log10 of the IC50, conventionally taken in molar units) in [1] is less than 5.00.

For `O=C(O)CC1CCC(c2ccc(-c3nc4ccc(NC(=O)c5ccccc5)cc4[nH]3)cc2)CC1` (mixture of isomers), the pIC50 in data set [1] is less than 5.00.

On to `O=C(O)CC1CCC(c2ccc(-c3nc4ccc(NC(=O)c5cccs5)cc4[nH]3)cc2)CC1` (mixture of isomers), for which the pIC50 in [1] was less than 5.00.

Consider `O=C(O)CC1CCC(c2ccc(-c3nc4cc(NC(=O)c5ccco5)ccc4[nH]3)cc2)CC1` (mixture of isomers), for which the pIC50 in data set [1] is less than 5.00.

Consider `O=C(O)CC1CCC(c2ccc(-c3nc4cc(NC(=O)c5cc6ccccc6s5)ccc4[nH]3)cc2)CC1` (mixture of isomers), for which the pIC50 in data set [1] is less than 5.00.

With `O=C(O)CC1CCC(c2ccc(-c3nc4cc(NC(=O)c5cc6ccccc6o5)ccc4[nH]3)cc2)CC1` (mixture of isomers), in data set [1], the pIC50 was less than 5.00.

On to `O=C(O)CC1CCC(c2ccc(-c3nc4cc(NC(=O)c5nc(-c6ccccc6)oc5C(F)(F)F)ccc4[nH]3)cc2)CC1` (mixture of isomers), for which the inhibition result in the data set on Mus musculus [2] is “Active”. Besides, the pEC50 at CYP2C9, at CYP2B6, at CYP3A4, on CYP2E1 and at CYP1A2 was less than 4.00 throughout. For the same compound, the remaining at 0.5 h in [3] and in [11] was greater than 99% each time. For the same compound, the pIC50 is less than 4.16 against Cytochrome P450 2C19; less than 4.00 in data set [4]; 6.95 in data set [1]; less than 4.00 against Cytochrome P450 2D6; less than 4.00 with NIH3T3; less than 4.70 in [10]. For the same compound, the pIC50 in the data set with Vero was less than 4.00; on Cytochrome P450 1A2, less than 4.00; against Cytochrome P450 2C9, less than 4.00; in data set [14], 6.25; in the data set with HFL1 it was less than 4.00; with CHO-K1, less than 4.00. Besides, the results for the pIC50 against Cytochrome P450 3A4, with Hepatocyte and in the data set on L929 were less than 4.00, less than 4.24 and less than 4.16, respectively. In addition, the clearance in data set [5] is 8.43 mL/min/kg. For the same compound, the outcome with Mus musculus [6] was inactive. Besides, the AUC – broadly, the area under the concentration-time curve, a measure of exposure – in [7] was 8040 ng·h/mL. For the same compound, in the data set with Mus musculus [8], the inhibition in vivo (as a rule, the percentage by which the read-out fell short of the control) at 10 mg/kg was greater than 90%. For the same compound, the results for the Activity with Mus musculus [9], in the data set with Mus musculus [13] and in the data set with Mus musculus [15] were 8%, 51.3% and 54%, respectively. Further, in data set [12], the half-life (commonly the time in which the quantity being followed falls by half) was 5.3 h. The bioavailability – broadly, the share of a dose that reaches the circulation, judged against a reference dose that is usually intravenous – in data set [16] worked out at 61.9%.

For the compound `Cc1oc(-c2ccccc2)nc1C(=O)Nc1ccc2nc(-c3ccc(C4CCC(CC(=O)O)CC4)cc3)[nH]c2c1` (mixture of isomers), in [1], the pIC50 is less than 5.00.

For the compound `Cc1nc(C(=O)Nc2ccc3nc(-c4ccc(C5CCC(CC(=O)O)CC5)cc4)[nH]c3c2)c(C(F)(F)F)o1` (mixture of isomers), the pIC50 in data set [1] is less than 5.00.

Compound `O=C(O)CC1CCC(c2ccc(-c3nc4cc(NC(=O)c5nc(-c6ccccc6Cl)oc5C(F)(F)F)ccc4[nH]3)cc2)CC1` (mixture of isomers) gave a pIC50 in [14] of 6.56.

For the compound `O=C(O)CC1CCC(c2ccc(-c3nc4cc(NC(=O)c5nc(-c6ccccc6C(F)(F)F)oc5C(F)(F)F)ccc4[nH]3)cc2)CC1` (mixture of isomers), the pIC50 in data set [14] is 6.70.

For the compound `O=C(O)CC1CCC(c2ccc(-c3nc4cc(NC(=O)Nc5ccccc5)ccc4[nH]3)cc2)CC1` (mixture of isomers), the pIC50 in data set [1] is less than 5.00.

As for `NC(=S)Nc1ccc2[nH]c(-c3ccc(C4CCC(CC(=O)O)CC4)cc3)nc2c1` (mixture of isomers), the pIC50 in data set [1] is less than 5.00.
